What all share (experiment): Inhibition assay, microfluidic LabChip (Nanosyn)
What all share (assay type): biochemical

The target in one test is T1, CDK4-CYCLIND1 (Homo sapiens, UniProt P11802).
T1 construct: purchased Invitrogen
Here is the method: (§1) The reaction was terminated by the addition of EDTA. The plates were analyzed using a Caliper LabChip 3000.
(§2) Additional inhibition assays were performed as described above.

A further test has as its target T2, CDK6-CYCLIND3 (Homo sapiens, UniProt Q00534).
T2 construct: purchased Carna
Here is the method: as §1, §2

Another test has as its target T3, CDK9-CYCLINT1 (Homo sapiens, UniProt P50750).
T3 construct: purchased Carna
Conditions: Table 3a. Here is the method: as §1, §2

Another test concerns the target CDK7 CyclinH (Homo sapiens, UniProt P50613). The protocol:
as §1, §2

Another test addresses T4, CDK2-CYCLINA (Homo sapiens, UniProt P24941).
T4 construct: purchased Millipore
The protocol: as §1, §2

Where [1] appears, read: Table 2, ATP 200 μM, read-out: CDK4 IC50.
[2] abbreviates: Table 2, ATP 300 μM, read-out: CDK6 IC50.

For orientation: IC50 means the concentration needed to halve the response being measured.

Like-named read-outs stand apart in the source and are kept apart here.

T1 sequence (P11802 whole entry): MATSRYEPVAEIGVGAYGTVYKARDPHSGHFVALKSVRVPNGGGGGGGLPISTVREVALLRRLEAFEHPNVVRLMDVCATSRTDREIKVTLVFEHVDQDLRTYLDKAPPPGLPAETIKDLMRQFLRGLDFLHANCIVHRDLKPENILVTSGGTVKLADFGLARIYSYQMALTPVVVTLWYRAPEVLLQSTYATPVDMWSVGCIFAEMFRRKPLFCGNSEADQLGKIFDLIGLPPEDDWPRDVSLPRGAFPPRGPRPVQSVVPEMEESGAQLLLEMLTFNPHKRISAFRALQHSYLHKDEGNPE
T1 sequence (P24385 whole entry partner): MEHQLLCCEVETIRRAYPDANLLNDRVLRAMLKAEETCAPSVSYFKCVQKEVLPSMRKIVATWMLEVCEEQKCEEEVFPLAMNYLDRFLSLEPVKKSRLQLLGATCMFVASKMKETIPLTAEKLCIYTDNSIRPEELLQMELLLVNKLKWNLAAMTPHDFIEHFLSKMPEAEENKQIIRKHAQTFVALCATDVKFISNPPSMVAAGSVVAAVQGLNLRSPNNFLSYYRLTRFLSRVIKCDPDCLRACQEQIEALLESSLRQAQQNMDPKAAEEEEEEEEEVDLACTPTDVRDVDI
T2 sequence (Q00534 whole entry): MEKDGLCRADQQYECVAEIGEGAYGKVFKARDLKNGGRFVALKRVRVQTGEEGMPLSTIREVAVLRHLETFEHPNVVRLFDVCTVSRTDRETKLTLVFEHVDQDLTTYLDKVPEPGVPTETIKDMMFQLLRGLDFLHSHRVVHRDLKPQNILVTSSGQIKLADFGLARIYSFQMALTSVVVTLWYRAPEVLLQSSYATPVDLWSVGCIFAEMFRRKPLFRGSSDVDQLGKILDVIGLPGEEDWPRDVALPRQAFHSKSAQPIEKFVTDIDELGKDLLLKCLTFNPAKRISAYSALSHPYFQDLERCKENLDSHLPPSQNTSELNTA
T2 sequence (P30281 whole entry partner): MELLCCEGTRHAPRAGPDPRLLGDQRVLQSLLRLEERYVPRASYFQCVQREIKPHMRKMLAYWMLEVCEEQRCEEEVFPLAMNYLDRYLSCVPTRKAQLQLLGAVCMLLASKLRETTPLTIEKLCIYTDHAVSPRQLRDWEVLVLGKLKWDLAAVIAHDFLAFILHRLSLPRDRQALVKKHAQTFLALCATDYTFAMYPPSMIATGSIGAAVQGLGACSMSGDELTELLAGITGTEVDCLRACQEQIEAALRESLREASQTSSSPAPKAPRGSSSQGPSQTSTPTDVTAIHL
Sequence of CDK7 CyclinH (P50613 whole entry): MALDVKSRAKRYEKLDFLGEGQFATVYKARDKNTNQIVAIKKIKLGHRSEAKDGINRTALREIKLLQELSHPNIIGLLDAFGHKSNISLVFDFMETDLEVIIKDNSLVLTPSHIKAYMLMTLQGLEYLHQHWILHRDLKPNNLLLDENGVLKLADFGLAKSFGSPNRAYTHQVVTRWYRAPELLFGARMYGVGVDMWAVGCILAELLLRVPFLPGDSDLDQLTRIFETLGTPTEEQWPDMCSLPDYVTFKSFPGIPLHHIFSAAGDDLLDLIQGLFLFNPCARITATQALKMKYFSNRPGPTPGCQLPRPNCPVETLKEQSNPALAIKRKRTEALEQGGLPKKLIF
Sequence of CDK7 CyclinH (P51946 whole entry partner): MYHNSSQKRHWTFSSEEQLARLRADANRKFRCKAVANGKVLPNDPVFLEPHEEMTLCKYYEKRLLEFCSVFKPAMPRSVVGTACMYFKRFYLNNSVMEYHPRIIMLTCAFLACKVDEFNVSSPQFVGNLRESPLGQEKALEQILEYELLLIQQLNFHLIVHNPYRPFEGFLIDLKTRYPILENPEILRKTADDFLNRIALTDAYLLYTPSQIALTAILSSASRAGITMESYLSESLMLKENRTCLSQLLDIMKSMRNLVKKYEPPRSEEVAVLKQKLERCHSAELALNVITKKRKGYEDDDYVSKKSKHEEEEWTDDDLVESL
Sequence of CDK7 CyclinH (P51948 whole entry partner): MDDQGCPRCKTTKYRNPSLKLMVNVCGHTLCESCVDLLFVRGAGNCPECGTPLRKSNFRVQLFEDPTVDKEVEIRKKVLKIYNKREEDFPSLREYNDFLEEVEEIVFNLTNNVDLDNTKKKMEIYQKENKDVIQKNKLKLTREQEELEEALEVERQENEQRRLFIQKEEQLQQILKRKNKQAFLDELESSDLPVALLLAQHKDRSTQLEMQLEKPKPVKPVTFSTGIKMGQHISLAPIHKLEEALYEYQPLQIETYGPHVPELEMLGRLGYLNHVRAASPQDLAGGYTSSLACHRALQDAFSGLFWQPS
T3 sequence (P50750 whole entry): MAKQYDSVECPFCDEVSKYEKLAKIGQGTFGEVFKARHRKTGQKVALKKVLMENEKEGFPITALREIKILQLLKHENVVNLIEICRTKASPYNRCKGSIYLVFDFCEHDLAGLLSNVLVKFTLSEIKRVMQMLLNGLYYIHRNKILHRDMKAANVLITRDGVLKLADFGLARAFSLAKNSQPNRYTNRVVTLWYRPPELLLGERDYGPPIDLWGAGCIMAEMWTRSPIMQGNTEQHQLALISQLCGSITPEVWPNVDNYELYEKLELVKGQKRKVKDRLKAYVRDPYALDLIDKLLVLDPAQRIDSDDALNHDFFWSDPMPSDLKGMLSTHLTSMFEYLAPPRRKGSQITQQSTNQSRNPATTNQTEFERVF
T3 sequence (O60563 whole entry partner): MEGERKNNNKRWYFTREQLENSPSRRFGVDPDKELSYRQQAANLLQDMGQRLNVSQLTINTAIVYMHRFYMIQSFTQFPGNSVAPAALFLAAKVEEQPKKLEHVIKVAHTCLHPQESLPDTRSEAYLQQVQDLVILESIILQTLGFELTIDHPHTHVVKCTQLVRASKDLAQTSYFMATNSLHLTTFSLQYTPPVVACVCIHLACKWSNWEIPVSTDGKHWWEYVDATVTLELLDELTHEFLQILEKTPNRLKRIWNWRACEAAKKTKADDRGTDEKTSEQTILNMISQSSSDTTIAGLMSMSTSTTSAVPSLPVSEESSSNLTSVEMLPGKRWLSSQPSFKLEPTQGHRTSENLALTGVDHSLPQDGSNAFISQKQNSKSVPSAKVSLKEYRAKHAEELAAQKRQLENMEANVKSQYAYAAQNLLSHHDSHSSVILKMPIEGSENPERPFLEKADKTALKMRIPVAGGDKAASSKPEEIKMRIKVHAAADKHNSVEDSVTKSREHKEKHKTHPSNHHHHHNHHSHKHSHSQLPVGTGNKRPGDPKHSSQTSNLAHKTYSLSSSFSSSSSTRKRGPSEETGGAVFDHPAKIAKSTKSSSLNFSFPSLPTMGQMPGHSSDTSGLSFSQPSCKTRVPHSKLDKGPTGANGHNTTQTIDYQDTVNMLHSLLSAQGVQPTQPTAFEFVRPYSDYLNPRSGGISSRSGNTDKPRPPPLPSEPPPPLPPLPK

With `CN(C)C(=O)c1c(F)c2cnc(Nc3ccc(OCCN4CCCC4)nc3)nc2n1C1CCCC1` [Compound A26, 7-cyclopentyl-5-fluoro-N,N-dimethyl-2-((6-(2-(pyrrolidin-1-yl)ethoxy)pyridin-3-yl)amino)-7H-pyrrolo[2,3-d]pyrimidine-6-carboxamide], the IC50 at CDK4-CYCLIND1 (setting [1]) is 39.3 nM; at CDK6-CYCLIND3 (setting [2]) it was 119 nM.

With `CN(C)C(=O)c1c(F)c2cnc(Nc3ccc(OCCN4CCCCC4)nc3)nc2n1C1CCCC1` [Compound A27, 7-cyclopentyl-5-fluoro-N,N-dimethyl-2-((6-(2-(piperidin-1-yl)ethoxy)pyridin-3-yl)amino)-7H-pyrrolo[2,3-d]pyrimidine-6-carboxamide], the IC50 at CDK4-CYCLIND1 (setting [1]) was 39.6 nM; on CDK6-CYCLIND3 (setting [2]) it was 116 nM.

For `CN1CCN(c2ccc(Nc3ncc4c(F)c(C(=O)N(C)C)n(C5CCCC5)c4n3)cn2)CC1` [Compound A28, 7-cyclopentyl-5-fluoro-N,N-dimethyl-2-((6-(4-methylpiperazin-1-yl)pyridin-3-yl)amino)-7H-pyrrolo[2,3-d]pyrimidine-6-carboxamide], the values for the IC50 at CDK4-CYCLIND1 (setting [1]) and at CDK6-CYCLIND3 (setting [2]) were 26.6 nM and 81.9 nM, respectively.

Take `CN(C)C(=O)c1c(F)c2cnc(N3CCN(c4ccc(C#N)cc4)CC3)nc2n1C1CCCC1` [Compound A29, 2-(4-(4-cyanophenyl)piperazin-1-yl)-7-cyclopentyl-5-fluoro-N,N-dimethyl-7H-pyrrolo[2,3-d]pyrimidine-6-carboxamide]: the IC50 at CDK4-CYCLIND1 (setting [1]) and at CDK6-CYCLIND3 (setting [2]) was greater than 30000 nM each time.

Consider `CN1CCN(c2ccc(Nc3ncc4cc(C(=O)N(C)C)n(C56CC(C5)C6)c4n3)cc2F)CC1` [Compound A30, 7-(bicyclo[1.1.1]pentan-1-yl)-2-((3-fluoro-4-(4-methylpiperazin-1-yl)phenyl)amino)-N,N-dimethyl-7H-pyrrolo[2,3-d]pyrimidine-6-carboxamide], for which the 50% inhibitory concentration (IC50) at CDK4-CYCLIND1 (setting [1]) amounted to 10.7 nM; at CDK6-CYCLIND3 (setting [2]) it was 31.7 nM.

Regarding `Cc1cc(Nc2ncc3cc(C(=O)N(C)C)n(C45CC(C4)C5)c3n2)ccc1N1CCN(C(C)C)CC1` [Compound A31, 7-(bicyclo[1.1.1]pentan-1-yl)-2-((4-(4-isopropylpiperazin-1-yl)-3-methylphenyl)amino)-N,N-dimethyl-7H-pyrrolo[2,3-d]pyrimidine-6-carboxamide], the half-inhibitory concentration (IC50) on CDK4-CYCLIND1 (setting [1]) turned out to be 9 nM; at CDK6-CYCLIND3 (setting [2]) it was 33.7 nM.

In the case of `CN(C)C(=O)c1cc2cnc(Nc3ccc(OCCN4CCCC4)c(F)c3)nc2n1C1CCCC1` [Compound A32, 7-cyclopentyl-2-((3-fluoro-4-(2-(pyrrolidin-1-yl)ethoxy)phenyl)amino)-N,N-dimethyl-7H-pyrrolo[2,3-d]pyrimidine-6-carboxamide], the concentration for half-maximal inhibition (IC50) on CDK4-CYCLIND1 (setting [1]) was determined as 1.95 nM; on CDK6-CYCLIND3 (setting [2]), 10.1 nM.

In the case of `CN(C)C(=O)c1c(F)c2cnc(Nc3ccc(OCCN4CCCC4)c(F)c3)nc2n1C1CCCC1` [Compound A33, 7-cyclopentyl-5-fluoro-2-((3-fluoro-4-(2-(pyrrolidin-1-yl)ethoxy)phenyl)amino)-N,N-dimethyl-7H-pyrrolo[2,3-d]pyrimidine-6-carboxamide], the half-maximal inhibitory concentration (IC50) on CDK4-CYCLIND1 (setting [1]) was determined as 10.1 nM; at CDK6-CYCLIND3 (setting [2]), 37.4 nM.

In the case of `Cc1cc(Nc2ncc3c(F)c(C(=O)N(C)C)n(C4CCCC4)c3n2)ccc1N1CCN(C(C)C)CC1` [Compound A34, 7-cyclopentyl-5-fluoro-2-((4-(4-isopropylpiperazin-1-yl)-3-methylphenyl)amino)-N,N-dimethyl-7H-pyrrolo[2,3-d]pyrimidine-6-carboxamide], the IC50 at CDK4-CYCLIND1 (setting [1]) is 26.2 nM; at CDK6-CYCLIND3 (setting [2]) it was 103 nM.

As to `COc1cc(Nc2ncc3c(F)c(C(=O)N(C)C)n(C4CCCC4)c3n2)ccc1N1CCN(C(C)C)CC1` [Compound A35, 7-cyclopentyl-5-fluoro-2-((4-(4-isopropylpiperazin-1-yl)-3-methoxyphenyl)amino)-N,N-dimethyl-7H-pyrrolo[2,3-d]pyrimidine-6-carboxamide], the IC50 on CDK4-CYCLIND1 (setting [1]) is 43.8 nM; on CDK6-CYCLIND3 (setting [2]) it was 217 nM.

With `CC(C)N1CCN(c2ccc(Nc3ncc4c(F)c(C(=O)N(C)C)n(C5CCCC5)c4n3)cc2)CC1` [Compound A36, 7-cyclopentyl-5-fluoro-2-((4-(4-isopropylpiperazin-1-yl)phenyl)amino)-N,N-dimethyl-7H-pyrrolo[2,3-d]pyrimidine-6-carboxamide], the values for the IC50 at CDK4-CYCLIND1 (setting [1]) and at CDK6-CYCLIND3 (setting [2]) were 8.17 nM and 32.5 nM, respectively.

Consider `CN1CCN(c2ccc(Nc3ncc4cc(C(=O)N(C)C)n(C56CC(C5)C6)c4n3)nc2)CC1` [Compound A38, 7-(bicyclo[1.1.1]pentan-1-yl)-N,N-dimethyl-2-((5-(4-methylpiperazin-1-yl)pyridin-2-yl)amino)-7H-pyrrolo[2,3-d]pyrimidine-6-carboxamide], for which the IC50 on CDK4-CYCLIND1 (setting [1]) stood at 15.4 nM; on CDK6-CYCLIND3 (setting [2]), 23.5 nM.

Turning to `CN1CCN(c2ccc(Nc3ncc4cc(C(=O)N(C)C)n(C56CC(C5)C6)c4n3)cc2F)CC1` [Compound A40, 7-(bicyclo[1.1.1]pentan-1-yl)-2-((3-fluoro-4-(4-methylpiperazin-1-yl)phenyl)amino)-N,N-dimethyl-7H-pyrrolo[2,3-d]pyrimidine-6-carboxamide], the IC50 on CDK4-CYCLIND1 (setting [1]) came to 5.16 nM; on CDK6-CYCLIND3 (setting [2]), 17.3 nM.

In the case of `CCN1CCN(Cc2ccc(Nc3ncc4cc(C(=O)N(C)C)n(C56CC(C5)C6)c4n3)nc2)CC1` [Compound A41, 7-(bicyclo[1.1.1]pentan-1-yl)-2-((5-((4-ethylpiperazin-1-yl)methyl)pyridin-2-yl)amino)-N,N-dimethyl-7H-pyrrolo[2,3-d]pyrimidine-6-carboxamide], the IC50 at CDK4-CYCLIND1 (setting [1]) stood at 21.4 nM; at CDK6-CYCLIND3 (setting [2]), 40.2 nM.

Consider `CN(C)C(=O)c1cc2cnc(Nc3ccc(N4CCOCC4)c(F)c3)nc2n1C12CC(C1)C2` [Compound A42, 7-(bicyclo[1.1.1]pentan-1-yl)-2-((3-fluoro-4-morpholinophenyl)amino)-N,N-dimethyl-7H-pyrrolo[2,3-d]pyrimidine-6-carboxamide], for which the half-maximal inhibitory concentration (IC50) on CDK4-CYCLIND1 (setting [1]) turned out to be 15 nM; on CDK6-CYCLIND3 (setting [2]), 43.4 nM.

For `CC(C)N1CC=C(c2ccc(Nc3ncc4cc(C(=O)N(C)C)n(C56CC(C5)C6)c4n3)nc2)CC1` [Compound A43, 7-(bicyclo[1.1.1]pentan-1-yl)-2-((1′-isopropyl-1′,2′,3′,6′-tetrahydro-[3,4′-bipyridin]-6-yl)amino)-N,N-dimethyl-7H-pyrrolo[2,3-d]pyrimidine-6-carboxamide], the results for the IC50 on CDK4-CYCLIND1 (setting [1]) and on CDK6-CYCLIND3 (setting [2]) were 35.6 nM and 32.9 nM, respectively.

In the case of `CN(C)C(=O)c1cc2cnc(Nc3ccc(C(=O)N4CC[C@H](N(C)C)C4)cc3)nc2n1C12CC(C1)C2` [Compound A44, (S)-7-(bicyclo[1.1.1]pentan-1-yl)-2-((4-(3-(dimethylamino)pyrrolidine-1-carbonyl)phenyl)amino)-N,N-dimethyl-7H-pyrrolo[2,3-d]pyrimidine-6-carboxamide], the figures for the IC50 at CDK4-CYCLIND1 (setting [1]) and at CDK6-CYCLIND3 (setting [2]) were 2.45 nM and 10.1 nM, respectively.

In the case of `CN(C)C(=O)c1cc2cnc(Nc3ccc(N4CCC(N5CCOCC5)CC4)cc3)nc2n1C12CC(C1)C2` [Compound A45, 7-(bicyclo[1.1.1]pentan-1-yl)-N,N-dimethyl-2-((4-(4-morpholinopiperidin-1-yl)phenyl)amino)-7H-pyrrolo[2,3-d]pyrimidine-6-carboxamide], the IC50 worked out at 29.3 nM on CDK4-CYCLIND1 (setting [1]) and 73.3 nM on CDK6-CYCLIND3 (setting [2]).

In the case of `CN(C)C(=O)c1cc2cnc(Nc3ccc(N4CC5(CNC5)C4)nc3)nc2n1C12CC(C1)C2` [Compound A46, 2-((6-(2,6-diazaspiro[3.3]heptan-2-yl)pyridin-3-yl)amino)-7-(bicyclo[1.1.1]pentan-1-yl)-N,N-dimethyl-7H-pyrrolo[2,3-d]pyrimidine-6-carboxamide], the 50% inhibitory concentration (IC50) came to 12.6 nM on CDK4-CYCLIND1 (setting [1]) and 28.2 nM at CDK6-CYCLIND3 (setting [2]).

As to `CN(C)C(=O)c1cc2cnc(Nc3ccc(N4CC5(CNC5)C4)c(F)c3)nc2n1C12CC(C1)C2` [Compound A47, 7-(bicyclo[1.1.1]pentan-1-yl)-2-((3-fluoro-4-(2,6-diazaspiro[3.3]heptan-2-yl)phenyl)amino)-N,N-dimethyl-7H-pyrrolo[2,3-d]pyrimidine-6-carboxamide], the IC50 was 5.22 nM at CDK4-CYCLIND1 (setting [1]) and 16.5 nM at CDK6-CYCLIND3 (setting [2]).

As for `CN(C)C(=O)c1cc2cnc(Nc3ccc(N4CC5(CNC5)C4)cc3)nc2n1C12CC(C1)C2` [Compound A48, 2-((4-(2,6-diazaspiro[3.3]heptan-2-yl)phenyl)amino)-7-(bicyclo[1.1.1]pentan-1-yl)-N,N-dimethyl-7H-pyrrolo[2,3-d]pyrimidine-6-carboxamide], the IC50 at CDK9-CYCLINT1 was found to be 14.9 nM; on CDK7 CyclinH (Table 3a) it was 4860 nM; against CDK7 CyclinH (Table 3b) it was 4860 nM; on CDK4-CYCLIND1 (Table 3a, read-out: CDK4 CyclinD1 IC50) it was 16.4 nM; on CDK4-CYCLIND1 (Table 3b, read-out: CDK4 CyclinD1 IC50), 16.4 nM; at CDK6-CYCLIND3 (Table 3a, read-out: CDK6 CyclinD3 IC50), 44 nM. Further, the IC50 at CDK6-CYCLIND3 (Table 3b, read-out: CDK6 CyclinD3 IC50) was found to be 44 nM; against CDK2-CYCLINA (Table 3a), 666 nM; at CDK2-CYCLINA (Table 3b), 666 nM.

With `CN(C)C(=O)c1cc2cnc(NC3CCN(S(C)(=O)=O)CC3)nc2n1C12CC(C1)C2` [Compound A75, 7-(bicyclo[1.1.1]pentan-1-yl)-N,N-dimethyl-2-((1-(methylsulfonyl)piperidin-4-yl)amino)-7H-pyrrolo[2,3-d]pyrimidine-6-carboxamide], the concentration for half-maximal inhibition (IC50) against CDK9-CYCLINT1 was 11.4 nM; against CDK7 CyclinH (Table 3a), 8130 nM; on CDK7 CyclinH (Table 3b), 8130 nM.

For the compound `CN(C)C(=O)c1cc2cnc(Nc3ccc(N4CCNCC4)c(F)c3)nc2n1C12CC(C1)C2` [Compound A85, 7-(bicyclo[1.1.1]pentan-1-yl)-2-((3-fluoro-4-(piperazin-1-yl)phenyl)amino)-N,N-dimethyl-7H-pyrrolo[2,3-d]pyrimidine-6-carboxamide], the IC50 against CDK7 CyclinH (Table 3a) was found to be 1140 nM; against CDK7 CyclinH (Table 3b), 1140 nM; on CDK2-CYCLINA (Table 3a), 162 nM; against CDK2-CYCLINA (Table 3b), 162 nM.

The record behind these values is US20220056037A1 (SPV THERAPEUTICS INC., priority 2018, published 2022).
